In this test the target is human full-length MKNK1 (Homo sapiens (Human), UniProt Q9BUB5, T344D). Nature of the test: MKNK1 kinase high ATP assay (TR-FRET). Particulars: high ATP (2 mM final), 15 min preincubation with MKNK1, TR-FRET. It counts as biochemical. As to the method:
MKNK1 Kinase High ATP Assay
MKNK1-inhibitory activity at high ATP of compounds of the present invention after their preincubation with MKNK1 was quantified employing the TR-FRET-based MKNK1 high ATP assay as described in the following paragraphs.
As substrate for the kinase reaction the biotinylated peptide biotin-Ahx-[…] (C-terminus in amide form) was used, which can be purchased e.g. from the company Biosyntan (Berlin-Buch, Germany).
For the assay 50 nL of a 100 fold concentrated solution of the test compound in DMSO was pipetted into a black low volume 384 well microtiter plate (Greiner Bio-One, Frickenhausen, Germany), 2 μL of a solution of MKNK1 in aqueous assay buffer [50 mM HEPES pH 7.5, 5 mM MgCl2, 1.0 mM dithiothreitol, 0.005% (v/v) Nonidet-P40 (Sigma)] was added and the mixture was incubated for 15 min at 22° C. to allow pre-binding of the test compounds to the enzyme before the start of the kinase reaction. Then the kinase reaction was started by the addition of 3 μL of a solution of adenosine-tri-phosphate (ATP, 3.3 mM=>final conc. in the 5 μL assay volume is 2 mM) and substrate (0.1 μM=>final conc. in the 5 μL assay volume is 0.06 μM) in assay buffer and the resulting mixture was incubated for a reaction time of 30 min at 22° C. The concentration of MKNK1 was adjusted depending of the activity of the enzyme lot and was chosen appropriate to have the assay in the linear range, typical concentrations were in the range of 0.003 μg/mL. The reaction was stopped by the addition of 5 μL of a solution of TR-FRET detection reagents (5 nM streptavidine-XL665 [Cisbio Bioassays, Codolet, France] and 1 nM anti-ribosomal protein S6 (pSer236)-antibody from Invitrogen [#44921G] and 1 nM LANCE EU-W1024 labeled ProteinG [Perkin-Elmer, product no. AD0071]) in an aqueous EDTA-solution (100 mM EDTA, 0.1% (w/v) bovine serum albumin in 50 mM HEPES pH 7.5).
The resulting mixture was incubated for 1 h at 22° C. to allow the formation of complex between the phosphorylated biotinylated peptide and the detection reagents. Subsequently the amount of phosphorylated substrate was evaluated by measurement of the resonance energy transfer from the Eu-chelate to the streptavidine-XL.
A general note: In TR-FRET formats the signal depends on donor and acceptor labels being close together.
human full-length MKNK1, sequence (Q9BUB5 other isoform, or with tags, fused parts or gaps T344D): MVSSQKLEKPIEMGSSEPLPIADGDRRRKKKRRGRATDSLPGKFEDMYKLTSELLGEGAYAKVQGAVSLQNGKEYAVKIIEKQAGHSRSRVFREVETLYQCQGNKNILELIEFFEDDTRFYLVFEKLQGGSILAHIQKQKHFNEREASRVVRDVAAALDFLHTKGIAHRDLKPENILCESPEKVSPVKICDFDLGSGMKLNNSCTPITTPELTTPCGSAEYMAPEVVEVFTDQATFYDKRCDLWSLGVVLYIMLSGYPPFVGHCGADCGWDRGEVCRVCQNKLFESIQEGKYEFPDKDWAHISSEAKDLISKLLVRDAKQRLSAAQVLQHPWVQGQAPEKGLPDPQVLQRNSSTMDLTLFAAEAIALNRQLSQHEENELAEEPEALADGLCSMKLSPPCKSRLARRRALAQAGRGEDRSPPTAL
By IC50 is commonly meant the point on the concentration scale where inhibition reaches its midpoint. A lower IC50 goes with inhibition by little substance. `O=c1[nH]c2ccc(Nc3ncnc4sc(CC5CC5)nc34)cc2s1` [Example 1, 6-{[2-(Cyclopropylmethyl)[1,3]thiazolo[5,4-d]pyrimidin-7-yl]amino}-1,3-benzothiazol-2(3H)-one] registered a half-maximal inhibitory concentration (IC50) of 37 nM. This counts as double-digit nanomolar.
Compound `O=c1[nH]c2ccc(Nc3ncnc4sc(C5CCC5)nc34)cc2s1` [Example 2, 6-[(2-Cyclobutyl[1,3]thiazolo[5,4-d]pyrimidin-7-yl)amino]-1,3-benzothiazol-2(3H)-one] showed an IC50 of 87 nM.
The figure for `COc1cc2[nH]ncc2cc1Nc1ncnc2sc(Cc3ccccc3)nc12` [Example 4, 2-Benzyl-N-(6-methoxy-1H-indazol-5-yl)[1,3]thiazolo[5,4-d]pyrimidin-7-amine] is 20 nM.
On to `COCc1nc2c(Nc3cc4cn[nH]c4cc3OC)ncnc2s1` [Example 5, N-(6-Methoxy-1H-indazol-5-yl)-2-(methoxymethyl)[1,3]thiazolo[5,4-d]pyrimidin-7-amine], for which the IC50 was 25 nM.
`COc1cc2[nH]c(=O)sc2cc1Nc1ncnc2sc(C3CCCCC3)nc12` [Example 7, 6-[(2-Cyclohexyl[1,3]thiazolo[5,4-d]pyrimidin-7-yl)amino]-5-methoxy-1,3-benzothiazol-2(3H)-one] displayed an IC50 of 354 nM.
Compound `c1nc(Nc2ccc3[nH]ncc3c2)c2nc(C3CCCCC3)sc2n1` [Example 8, 2-Cyclohexyl-N-(1H-indazol-5-yl)[1,3]thiazolo[5,4-d]pyrimidin-7-amine] had an IC50 of 56 nM.
On to `c1nc(Nc2ccc3[nH]ncc3c2)c2nc(CC3CC3)sc2n1` [Example 9, 2-(Cyclopropylmethyl)-N-(1H-indazol-5-yl)[1,3]thiazolo[5,4-d]pyrimidin-7-amine], for which the 50% inhibitory concentration (IC50) came to 36 nM.
In the case of `c1nc(Nc2ccc3[nH]ncc3c2)c2nc(C3CCC3)sc2n1` [Example 10, 2-Cyclobutyl-N-(1H-indazol-5-yl)[1,3]thiazolo[5,4-d]pyrimidin-7-amine], the concentration for half-maximal inhibition (IC50) was determined as 54 nM.
Compound `c1ccc(Cc2nc3c(Nc4ccc5[nH]ncc5c4)ncnc3s2)cc1` [Example 11, 2-Benzyl-N-(1H-indazol-5-yl)[1,3]thiazolo[5,4-d]pyrimidin-7-amine] gave an IC50 of 35 nM.
Consider `CC1(O)CN(C(=O)CCc2nc3c(Nc4ccc5[nH]ncc5c4)ncnc3s2)C1` [Example 14, 1-(3-Hydroxy-3-methylazetidin-1-yl)-3-[7-(1H-indazol-5-ylamino)[1,3]thiazolo[5,4-d]pyrimidin-2-yl]propan-1-one], for which the half-inhibitory concentration (IC50) turned out to be 126 nM.
`COc1cc2[nH]ncc2cc1Nc1ncnc2scnc12` [Example 15, N-(6-Methoxy-1H-indazol-5-yl)[1,3]thiazolo[5,4-d]pyrimidin-7-amine] displayed an IC50 of 47 nM.
Turning to `c1nc(Nc2ccc3[nH]ncc3c2)c2ncsc2n1` [Example 16, N-(1H-Indazol-5-yl)[1,3]thiazolo[5,4-d]pyrimidin-7-amine], the half-maximal inhibitory concentration (IC50) was 186 nM. Compared with the last compound, the IC50 is about 4-fold higher.
For `O=c1[nH]c2ccc(Nc3ncnc4scnc34)cc2s1` [Example 19, 6-([1,3]Thiazolo[5,4-d]pyrimidin-7-ylamino)-1,3-benzothiazol-2(3H)-one], the midpoint of inhibition, the IC50, lay at 159 nM.
Consider `COc1cc2[nH]ncc2cc1Nc1ncnc2sc(COCc3ccccc3)nc12` [Example 20, 2-[(Benzyloxy)methyl]-N-(6-methoxy-1H-indazol-5-yl)[1,3]thiazolo[5,4-d]pyrimidin-7-amine], for which the IC50 amounted to 36 nM.
Compound `CN(C)C(=O)CCc1nc2c(Nc3ccc4[nH]ncc4c3)ncnc2s1` [Example 21, 3-[7-(1H-Indazol-5-ylamino)[1,3]thiazolo[5,4-d]pyrimidin-2-yl]-N,N-dimethylpropanamide] returned an IC50 of 100 nM.
In the case of `COc1cc2[nH]ncc2cc1Nc1ncnc2sc(CCc3ccccc3)nc12` [Example 22, N-(6-Methoxy-1H-indazol-5-yl)-2-(2-phenylethyl)[1,3]thiazolo[5,4-d]pyrimidin-7-amine] it was 38 nM.
In the case of `c1ccc(CCc2nc3c(Nc4ccc5[nH]ncc5c4)ncnc3s2)cc1` [Example 23, N-(1H-indazol-5-yl)-2-(2-phenylethyl)[1,3]thiazolo[5,4-d]pyrimidin-7-amine], half-maximal inhibition (IC50) required 51 nM.
On to `COc1cc2[nH]c(=O)sc2cc1Nc1ncnc2sc(CCc3ccccc3)nc12` [Example 25, 5-Methoxy-6-{[2-(2-phenylethyl)[1,3]thiazolo[5,4-d]pyrimidin-7-yl]amino}-1,3-benzothiazol-2(3H)-one], for which inhibition was half-maximal at 10000 nM (IC50).
The figure for `COc1cc2[nH]ncc2cc1Nc1ncnc2sc(CCCC(=O)N(C)C)nc12` [Example 26, 4-{7-[(6-Methoxy-1H-indazol-5-yl)amino][1,3]thiazolo[5,4-d]pyrimidin-2-yl}-N, N-dimethylbutanamide] is 85 nM; for `COc1cc2[nH]c(=O)sc2cc1Nc1ncnc2sc(C(=O)N(C)C)nc12` [Example 28, 7-[(5-Methoxy-2-oxo-2,3-dihydro-1,3-benzothiazol-6-yl)amino]-N,N-dimethyl[1,3]thiazolo[5,4-d]pyrimidine-2-carboxamide] it is 1080 nM.
With `CCOc1cc2[nH]ncc2cc1Nc1ncnc2sc(C(=O)N(C)C)nc12` [Example 30, 7-[(6-Ethoxy-1H-indazol-5-yl)amino]-N, N-dimethyl[1,3]thiazolo[5,4-d]pyrimidine-2-carboxamide], the 50% inhibitory concentration (IC50) turned out to be 42 nM. Against the preceding compound, the IC50 is about 26-fold lower.
For the compound `O=C(c1nc2c(Nc3ccc4[nH]ncc4c3)ncnc2s1)N1CCCCC1` [Example 31, [7-(1H-Indazol-5-ylamino)[1,3]thiazolo[5,4-d]pyrimidin-2-yl](piperidin-1-yl)methanone], half-maximal inhibition (IC50) was put at 188 nM. Compared with the last compound, the IC50 is about 4.5-fold higher.
The compound `O=C(c1nc2c(Nc3ccc4[nH]c(=O)sc4c3)ncnc2s1)N1CCCCC1` [Example 32, 6-{[2-(Piperidin-1-ylcarbonyl)[1,3]thiazolo[5,4-d]pyrimidin-7-yl]amino}-1,3-benzothiazol-2(3H)-one] gave an IC50 of 137 nM.
Consider `COc1cc2[nH]ncc2cc1Nc1ncnc2sc(C(=O)N3CCCCC3)nc12` [Example 33, {7-[(6-Methoxy-1H-indazol-5-yl)amino][1,3]thiazolo[5,4-d]pyrimidin-2-yl}(piperidin-1-yl)methanone], for which the IC50 was 17 nM.
`CCOc1cc2[nH]ncc2cc1Nc1ncnc2sc(C(=O)N3CCCCC3)nc12` [Example 34, {7-[(6-Ethoxy-1H-indazol-5-yl)amino][1,3]thiazolo[5,4-d]pyrimidin-2-yl}(piperidin-1-yl)methanone] registered an IC50 of 34 nM.
In turn, `CC(C)Oc1cc2[nH]ncc2cc1Nc1ncnc2sc(C(=O)N3CCCCC3)nc12` [Example 35, Piperidin-1-yl(7-{[6-(propan-2-yloxy)-1H-indazol-5-yl]amino}[1,3]thiazolo[5,4-d]pyrimidin-2-yl)methanone] came in with a concentration for half-maximal inhibition (IC50) of 102 nM. This IC50 is about 3-fold higher than that of the compound before.
In turn, `COc1cc2[nH]ncc2cc1Nc1ncnc2sc(C(=O)N(C)CC(=O)N(C)C)nc12` [Example 38, N-[2-(Dimethylamino)-2-oxoethyl]-7-[(6-methoxy-1H-indazol-5-yl)amino]-N-methyl[1,3]thiazolo[5,4-d]pyrimidine-2-carboxamide] displayed a half-maximal inhibitory concentration (IC50) of 136 nM.
In the case of `CN(C)C(=O)CCN(C)C(=O)c1nc2c(Nc3ccc4[nH]c(=O)sc4c3)ncnc2s1` [Example 41, N-[3-(Dimethylamino)-3-oxopropyl]-N-methyl-7-[(2-oxo-2,3-dihydro-1,3-benzothiazol-6-yl)amino][1,3]thiazolo[5,4-d]pyrimidine-2-carboxamide] it was 2750 nM.
`CN(C)C(=O)c1nc2c(Nc3ccc4[nH]ncc4c3)ncnc2s1` [Example 43, 7-(1H-Indazol-5-ylamino)-N,N-dimethyl[1,3]thiazolo[5,4-d]pyrimidine-2-carboxamide] had an IC50 of 202 nM.
In the case of `COc1cc2[nH]ncc2cc1Nc1ncnc2sc(C(=O)N(C)CCC(=O)N(C)C)nc12` [Example 46, N-[3-(Dimethylamino)-3-oxopropyl]-7-[(6-methoxy-1H-indazol-5-yl)amino]-N-methyl[1,3]thiazolo[5,4-d]pyrimidine-2-carboxamide] it was 184 nM.

Values taken from patent US9675612B2, “Substituted thiazolopyrimidines” (BAYER PHARMA AKTIENGESELLSCHAFT, priority 2013, dated 2017).
